A word on the pKi: it is the negative decadic logarithm of the Ki, by convention in mol/L. A lower pKi goes with a high Ki. Broadly, the pIC50 is the negative decadic logarithm of the IC50, by convention in mol/L.

pIC50, pKi: −log10 of the molar value.

MAPK14 (human), sequence (Q16539 whole entry, looked up): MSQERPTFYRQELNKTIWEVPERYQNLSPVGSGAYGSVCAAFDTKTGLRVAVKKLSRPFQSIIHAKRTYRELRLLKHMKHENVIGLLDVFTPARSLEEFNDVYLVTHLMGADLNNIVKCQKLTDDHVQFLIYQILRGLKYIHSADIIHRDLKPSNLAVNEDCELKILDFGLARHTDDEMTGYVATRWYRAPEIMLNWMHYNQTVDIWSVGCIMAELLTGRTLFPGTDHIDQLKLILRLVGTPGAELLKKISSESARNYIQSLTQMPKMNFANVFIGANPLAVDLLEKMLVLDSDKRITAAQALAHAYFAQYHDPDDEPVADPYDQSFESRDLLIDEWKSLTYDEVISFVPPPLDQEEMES

The assay concerns the target MAPK14 (human) (UniProt Q16539). Description: Assessment of MAPK14 Kinase Activity by Fluorescence Anisotropy Kinase Binding Assay. On the technique in general: In fluorescence polarisation assays a small probe gives low polarisation when free and higher when bound to something large.
The compound `O=c1ccc2c(-c3ccccc3)nccc2n1Cc1ccccc1` had a pKi of 7.70.

Regarding `O=c1ccc2c(-c3ccccc3)nccc2[nH]1`, the pIC50 is over 6.00.

`O=c1ccc2c(-c3ccccc3Cl)nc(Br)cc2n1-c1ccccc1Cl`: the pKi is 7.70.

Take `O=c1ccc2c(-c3ccccc3Cl)cc(NC(CO)CO)cc2n1-c1ccccc1Cl`: the pKi is 7.70.

Compound `O=c1ccc2c(-c3ccccc3Cl)nc(Cl)cc2n1-c1ccccc1Cl` had a pKi of 7.70.

Compound `COc1cc2c(ccc(=O)n2-c2ccccc2Cl)c(-c2ccccc2Cl)c1Br` showed a pKi of 7.90.

Compound `O=c1ccc2c(-c3ccc(F)cc3)ccnc2n1-c1ccc(F)cc1` gave a pIC50 of over 6.00.

Compound `O=c1ccc2c(-c3ccccc3F)cccc2n1-c1ccc(F)cc1` gave a pIC50 of over 6.00.

`O=c1ccc2c(-c3ccc(F)cc3F)ccnc2n1-c1ccc(F)cc1` showed a pIC50 of over 6.00.

`O=c1ccc2c(-c3ccc(F)cc3F)cccc2n1-c1ccc(F)cc1` showed a pIC50 of over 6.00.

The compound `O=c1ccc2c(-c3ccc(F)cc3)cccc2n1-c1ccc(F)cc1` gave a pIC50 of over 6.00.

These data come from the Kinase Knowledgebase extract (Sharma et al. 2016).
